Reference: patent US20190166840A1, “SUBSTITUTED PYRAZOLINYL DERIVATIVES, PROCESSES FOR THEIR PREPARATION AND THEIR USE AS HERBICIDES AND/OR PLANT GROWTH REGULATORS” (BAYER CROPSCIENCE AKTIENGESELLSCHAFT, priority 2016, published 2019)

Experiments:
photosystem II (PS II) = molecular target: T1, photosystem II (PS II) (Spinacia oleracea, UniProt P69560); assay: Activity determination of photosystem II (PS II) in thylakoid membranes, DCPIP reduction; type: biochemical; conditions: spinach thylakoid membranes, DCPIP 120 μM, 10 min at 22° C. with illumination
T1 construct: the chloroplasts were osmotically ruptured and the thylakoid membranes were then obtained by centrifugation; from tissue; host or cells: spinach leaves (thylakoid membrane preparation)
Description: Measurement of PS II Activity in Thylakoid Membranes
1. Preparation of the Thylakoid Membranes
Cooled fresh spinach leaves were comminuted and homogenized in 50 mM phosphate buffer, pH 6.8, 10 mM KCl, 0.34 M sucrose (sucrose buffer) (mixer, 1 g of plant material/ml). The homogenate was subsequently filtered through 4 layers of Miracloth and the chloroplasts were obtained by centrifugation: • 10 minutes (min) of centrifugation at 4400×g (4° C.). • The sediment was suspended in 25 ml of sucrose buffer and centrifuged for another 10 min at 4400×g (4° C.). • The sediment was then suspended in 40 ml of 50 mM phosphate buffer, pH 6.8, 10 mM KCl, without sucrose. • In this step, the chloroplasts were osmotically ruptured and the thylakoid membranes were then obtained by centrifugation (10 min, 4400×g, 4° C.). The membrane sediment was finally suspended in about 20 ml of 50 mM phosphate buffer, pH 6.8, 10 mM KCl. • After protein determination and activity determination, the membrane suspension was aliquoted and frozen in liquid nitrogen. The aliquots were stored at −80° C. Under these conditions, the photosystem II preparation is storage-stable for at least three months.
2. Activity Determination of the Photosystem II (PS II)
The electron transfer from PS II to an artificial electronic captor, 2,6-dichlorophenol-indophenol (DCPIP), is measured under the action of light. The concentration of the blue oxidized form of DCPIP can be determined spectraphotometrically at the wavelength l=595 nm. The enzyme-catalyzed reduction of DCPIP results in a colourless leuco form and thus to a decrease of absorption at 595 nm in the reaction batch, which is measured as a function of time.
The activity determination was carried out in microtiter plates (96 wells) in a reaction volume of 200 μl. 155 μl of dilute membrane suspension in 50 mM phosphate buffer, pH 6.8, 10 mM KCl were initially charged. Depending on the activity of the PS II preparation, the dilution was adjusted such that measurement of the decrease in absorption (λ=595 nm) was linear for at least 10 min.
Typical dilution series of the test compounds comprised 10 concentration steps in the range between 10^−9and 10^−5 M.
On each microtiter plate, a known PS II inhibitor, e.g. metribuzin, was used as standard for assessing the quality of the PS II test.
The reaction was initiated by addition of 40 μl DCPIP solution (600 μM in distilled water); the final concentration of DCPIP was 120 μM.
Absorption was measured over a period of 10 min at 22° C. and with illumination. For calculating the active compound concentration at which 50% of the enzyme activity is inhibited (IC50), the relative enzymatic activity (in %) was plotted as a function of the logarithm of the active compound concentration.

[1] = tested on: Polygonum convolvulus (=Fallopia convolvulus); assay: Post-emergence herbicidal action, POLCO; type: in vivo; conditions: one-leaf stage, application rate 1280 g/ha, scored visually after about 3 weeks
Description: (§1) Post-Emergence Herbicidal Activity Seeds of mono- and dicotyledonous weed plants and crop plants were placed in sandy loam in wood fibre pots, covered with soil and then cultivated in a greenhouse under good growth conditions. Two to 3 weeks after sowing, the test plants were treated at the one-leaf stage, with the formulated compounds of the general formula (I) according to the invention being sprayed as an aqueous suspension or emulsion at an application rate of 600 l of water/ha (converted) with addition of 0.2% wetting agent, onto the green parts of the plants. After the test plants had been left to stand in the greenhouse for about 3 weeks under optimum growth conditions, the activity of the preparations was scored visually in percent in comparison to untreated controls. For example, 100% activity=the plants have died, 50% herbicidal activity or damage=plants reduced to 50% or plant material reduced by 50%, 0% activity=like control plants. […] Here, the herbicidal action of the compounds of the general formula (I) according to the invention was examined for the following harmful plants: POLCO=Polygonum convolvulus (=Fallopia convolvulus) The respective herbicidal action was in each case determined at the same point in time after application of the formulation in question, i.e. damage of the harmful plant in question in %. […]

Ipomoea purpurea = assay: Post-emergence herbicidal action, PHBPU; type: in vivo; conditions: one-leaf stage, application rate 1280 g/ha, scored visually after about 3 weeks
Description: as §1, with “PHBPU=Ipomoea purpurea” for “POLCO=Polygonum convolvulus (=Fallopia convolvulus)”

Setaria viridis = assay: Post-emergence herbicidal action, SETVI; type: in vivo; conditions: one-leaf stage, application rate 1280 g/ha, scored visually after about 3 weeks
Description: as §1, with “SETVI=Setaria viridis” for “POLCO=Polygonum convolvulus (=Fallopia convolvulus)”

Viola tricolor = assay: Post-emergence herbicidal action, VIOTR; type: in vivo; conditions: one-leaf stage, application rate 1280 g/ha, scored visually after about 3 weeks
Description: as §1, with “VIOTR=Viola tricolor” for “POLCO=Polygonum convolvulus (=Fallopia convolvulus)”

Work on `CC1=C(Cl)C(=O)N(C2=NN(C)C(c3ccc(Cl)cc3)C2)C1O` (stereo not drawn) [I.3-1351] yielded a pI50 (photosystem II (PS II)) of 5.5.
With `CC1=C(Br)C(=O)N(C2=NN(C)C(c3ccccc3)C2)C1O` (stereo not drawn) [I.8-1126] the pI50 (photosystem II (PS II)) was 5.1.
With `CC1=C(Br)C(=O)N(C2=NN(C)C(c3ccc(Cl)cc3)C2)C1O` (stereo not drawn) [I.8-1351] the pI50 (photosystem II (PS II)) was 5.7.
Work on `CC1=C(Cl)C(=O)N(C2=NN(c3ccccc3)C(C)C2)C1O` (stereo not drawn) [I.3-321] yielded a pI50 (photosystem II (PS II)) of 5.4.
In the case of `CC1=C(C)C(O)N(C2=NN(c3ccccn3)C(C)C2)C1=O` (stereo not drawn) [I.2-432], the “Post-emergence herbicidal action POLCO, damage of the harmful plant” value [1] is reported as 0%, the “Post-emergence herbicidal action PHBPU, damage of the harmful plant” value (Ipomoea purpurea) is reported as 0% and the “Post-emergence herbicidal action SETVI, damage of the harmful plant” value (Setaria viridis) is reported as 80%. The “Post-emergence herbicidal action VIOTR, damage of the harmful plant” value (Viola tricolor) was 80%.
Work on `CC1=C(C)C(O)N(C2=NN(Cc3ccccc3)C(C)(C)C2)C1=O` (stereo not drawn) [I.2-217] yielded a pI50 (photosystem II (PS II)) of 5.4.
For `CC1=C(Br)C(=O)N(C2=NN(c3ccccc3)CC2)C1O` (stereo not drawn) [I.8-621], the pI50 (photosystem II (PS II)) was 5.3, the “Post-emergence herbicidal action POLCO, damage of the harmful plant” value [1] was 90% and the “Post-emergence herbicidal action PHBPU, damage of the harmful plant” value (Ipomoea purpurea) was 90%. The “Post-emergence herbicidal action SETVI, damage of the harmful plant” value (Setaria viridis) was 60% and the “Post-emergence herbicidal action VIOTR, damage of the harmful plant” value (Viola tricolor) was 80%.
`CC1=C(C)C(O)N(C2=NN(c3ccccc3)C(C)C2)C1=O` (stereo not drawn) [I.2-321] showed an IC50 (photosystem II (PS II); read-out: pI50 (converted)) of 7.94 µM.
